# Data from patent US8802700B2 (Vertex Pharmaceuticals Incorporated, priority 2010, dated 2014).
# pEC50: −log10 of the molar value.
# Target: T1, ΔF508-CFTR (Homo sapiens, UniProt P13569, DEL508-508)
# T1 construct: expressed in transfected cells
# Assay: Membrane potential optical assay (FRET voltage-sensor dyes, VIPR), identification of potentiator compounds
# Type: cell-based
# Conditions: Table 3; assay not given
# How it was run: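 NIH3T3 mouse fibroblasts stably expressing ΔF508-CFTR, cultured 24 h at 27 °C, were loaded with FRET voltage dyes CC2-DMPE and DiSBAC2(3). Double-addition format: first addition of Cl⁻-free (gluconate) medium with or without compound; membrane-potential change read as fluorescence on VIPR II.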
# T1 sequence (P13569 with tags, fused parts or gaps DEL508-508): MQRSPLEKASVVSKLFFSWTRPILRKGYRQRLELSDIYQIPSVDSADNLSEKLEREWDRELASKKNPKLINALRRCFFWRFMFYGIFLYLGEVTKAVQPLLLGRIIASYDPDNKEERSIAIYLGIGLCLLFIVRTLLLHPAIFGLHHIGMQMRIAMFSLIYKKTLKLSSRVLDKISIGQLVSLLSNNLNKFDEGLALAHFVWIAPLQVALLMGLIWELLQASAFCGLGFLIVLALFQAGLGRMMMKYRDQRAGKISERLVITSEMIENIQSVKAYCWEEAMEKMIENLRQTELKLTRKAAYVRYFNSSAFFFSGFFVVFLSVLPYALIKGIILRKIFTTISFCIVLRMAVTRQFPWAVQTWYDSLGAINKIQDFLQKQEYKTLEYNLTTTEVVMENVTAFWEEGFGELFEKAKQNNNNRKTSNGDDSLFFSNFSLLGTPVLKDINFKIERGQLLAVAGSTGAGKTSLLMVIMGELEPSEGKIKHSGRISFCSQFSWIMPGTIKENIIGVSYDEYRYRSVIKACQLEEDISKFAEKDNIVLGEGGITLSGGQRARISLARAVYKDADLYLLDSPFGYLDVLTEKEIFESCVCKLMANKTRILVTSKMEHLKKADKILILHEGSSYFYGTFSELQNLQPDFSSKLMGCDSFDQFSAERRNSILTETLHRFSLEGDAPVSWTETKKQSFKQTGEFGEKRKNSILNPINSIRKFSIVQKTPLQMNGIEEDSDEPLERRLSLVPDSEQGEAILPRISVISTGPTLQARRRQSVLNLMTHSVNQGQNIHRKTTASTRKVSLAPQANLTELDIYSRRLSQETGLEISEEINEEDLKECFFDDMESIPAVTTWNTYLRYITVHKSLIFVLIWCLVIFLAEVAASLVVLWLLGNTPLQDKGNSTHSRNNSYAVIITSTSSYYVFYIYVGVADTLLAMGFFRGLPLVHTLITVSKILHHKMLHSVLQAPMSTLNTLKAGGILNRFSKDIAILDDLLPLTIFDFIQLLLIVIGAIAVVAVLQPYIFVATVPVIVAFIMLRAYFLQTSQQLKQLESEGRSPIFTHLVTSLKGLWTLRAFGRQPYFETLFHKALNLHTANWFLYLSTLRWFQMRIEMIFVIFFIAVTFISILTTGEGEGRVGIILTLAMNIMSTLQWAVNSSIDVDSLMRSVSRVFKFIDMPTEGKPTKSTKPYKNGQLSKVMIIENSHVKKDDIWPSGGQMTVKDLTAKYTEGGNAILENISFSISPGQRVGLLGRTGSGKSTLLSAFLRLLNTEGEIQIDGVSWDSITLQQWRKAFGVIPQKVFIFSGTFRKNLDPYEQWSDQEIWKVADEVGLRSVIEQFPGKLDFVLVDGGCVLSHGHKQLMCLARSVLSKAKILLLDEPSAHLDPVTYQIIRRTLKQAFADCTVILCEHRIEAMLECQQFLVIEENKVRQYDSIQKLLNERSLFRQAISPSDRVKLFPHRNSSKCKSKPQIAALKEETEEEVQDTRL
row,pEC50,Structure (SMILES)
1,> 5.00,"Cc1cc(-c2ccccc2NC(=O)c2c[nH]c3ccccc3c2=O)ccc1F [Compound 79, N-[2-(4-fluoro-3-methyl-phenyl)phenyl]-4-oxo-1H-quinoline-3-carboxamide]"
2,> 5.00,"COc1ccc(OC)c(-c2ccccc2NC(=O)c2c[nH]c3ccccc3c2=O)c1 [Compound 361, N-[2-(2,5-dimethoxyphenyl)phenyl]-4-oxo-1H-quinoline-3-carboxamide]"

# Second part, the compound before the results:
row,Structure (SMILES),pEC50
1,"CC(C)(C)c1c[nH]c2cc(NC(=O)c3c[nH]c4ccccc4c3=O)c(C(F)(F)F)cc12 [Compound 508, 4-oxo-N-[3-tert-butyl-5-(trifluoromethyl)-1H-indol-6-yl]-1H-quinoline-3-carboxamide]",> 5.00
2,"CC(C)c1ccc(NC(=O)c2c[nH]c3ccc(F)cc3c2=O)cc1O [Compound 597, 6-fluoro-N-(3-hydroxy-4-isopropyl-phenyl)-4-oxo-1H-quinoline-3-carboxamide]",> 5.00

# Same assay, conditions: Table 3; assay not given; read-out: % Activity (% Efficacy, relative efficacy)
row,Emax [%],Structure (SMILES)
1,< 25,"O=C(Nc1ccc2ncccc2c1)c1c[nH]c2ccccc2c1=O [Compound 280, 4-oxo-N-(6-quinolyl)-1H-quinoline-3-carboxamide]"
2,25 to 100,"Cc1ccc(S(=O)(=O)Nc2ccccc2NC(=O)c2c[nH]c3ccccc3c2=O)cc1 [Compound 398, 4-oxo-N-[2-(p-tolylsulfonylamino)phenyl]-1H-quinoline-3-carboxamide]"
3,< 25,"Cc1ccc(NC(=O)c2c[nH]c3ccccc3c2=O)nc1 [Compound 195, N-(5-methyl-2-pyridyl)-4-oxo-1H-quinoline-3-carboxamide]"
4,25 to 100,"O=C(Nc1cccnc1Oc1ccc(F)cc1)c1c[nH]c2ccccc2c1=O [Compound 147, N-[2-(4-fluorophenoxy)-3-pyridyl]-4-oxo-1H-quinoline-3-carboxamide]"
5,25 to 100,"Cc1cc(-c2ccccc2NC(=O)c2c[nH]c3ccccc3c2=O)ccc1F [Compound 79, N-[2-(4-fluoro-3-methyl-phenyl)phenyl]-4-oxo-1H-quinoline-3-carboxamide]"
6,> 100,"COc1cccc(-c2ccccc2NC(=O)c2c[nH]c3ccccc3c2=O)c1F [Compound 363, N-[2-(2-fluoro-3-methoxy-phenyl)phenyl]-4-oxo-1H-quinoline-3-carboxamide]"
7,25 to 100,"O=C(Nc1ccccc1Oc1ccccc1)c1c[nH]c2ccccc2c1=O [Compound 413, 4-oxo-N-(2-phenoxyphenyl)-1H-quinoline-3-carboxamide]"
8,25 to 100,"O=C(Nc1ccc(Cl)cc1)c1c[nH]c2ccccc2c1=O [Compound 405, N-(4-chlorophenyl)-4-oxo-1H-quinoline-3-carboxamide]"
9,< 25,"O=C(Nc1ccccn1)c1c[nH]c2ccccc2c1=O [Compound 155, 4-oxo-N-(2-pyridyl)-1H-quinoline-3-carboxamide]"
10,< 25,"N#CCc1ccc(NC(=O)c2c[nH]c3ccccc3c2=O)cc1 [Compound 110, N-[4-(cyanomethyl)phenyl]-4-oxo-1H-quinoline-3-carboxamide]"
11,25 to 100,"C=Cc1ccc(NC(=O)c2c[nH]c3ccccc3c2=O)cc1 [Compound 452, 4-oxo-N-(4-vinylphenyl)-1H-quinoline-3-carboxamide]"
12,> 100,"COc1ccc(OC)c(-c2ccccc2NC(=O)c2c[nH]c3ccccc3c2=O)c1 [Compound 361, N-[2-(2,5-dimethoxyphenyl)phenyl]-4-oxo-1H-quinoline-3-carboxamide]"
13,25 to 100,"CC(C)c1ccc(-c2ccccc2NC(=O)c2c[nH]c3ccccc3c2=O)cc1 [Compound 432, N-[2-(4-isopropylphenyl)phenyl]-4-oxo-1H-quinoline-3-carboxamide]"
14,25 to 100,"O=C(Nc1ccc(OC(F)F)cc1)c1c[nH]c2ccccc2c1=O [Compound 360, N-[4-(difluoromethoxy)phenyl]-4-oxo-1H-quinoline-3-carboxamide]"
15,25 to 100,"O=C(Nc1ccccc1Cc1ccccc1)c1c[nH]c2ccccc2c1=O [Compound 265, N-(2-benzylphenyl)-4-oxo-1H-quinoline-3-carboxamide]"

# Continued, compound first:
row,Structure (SMILES),Emax [%]
1,"CC(C)(C)c1ccc(NC(=O)c2c[nH]c3ccccc3c2=O)cc1N1CCCCC1 [Compound 510, 4-oxo-N-[3-(1-piperidyl)-4-tert-butyl-phenyl]-1H-quinoline-3-carboxamide]",25 to 100
2,"Cc1cccc2[nH]cc(C(=O)Nc3ccc(N4CCC(C)(C)C4)cc3C(F)(F)F)c(=O)c12 [Compound 578, N-[4-(3,3-dimethylpyrrolidin-1-yl)-2-(trifluoromethyl)phenyl]-5-methyl-4-oxo-1H-quinoline-3-carboxamide]",25 to 100
3,"CC(C)COC(=O)NCC(C)(C)c1ccc(NC(=O)c2c[nH]c3ccccc3c2=O)cc1 [Compound 251, [2-methyl-2-[4-[(4-oxo-1H-quinolin-3-yl)carbonylamino]phenyl]-propyl]aminoformic acid isobutyl ester]",25 to 100
4,"COc1cc(N2CCCC2)ccc1NC(=O)c1c[nH]c2ccccc2c1=O [Compound 675, N-(2-methoxy-4-pyrrolidin-1-yl-phenyl)-4-oxo-1H-quinoline-3-carboxamide]",25 to 100
5,"COc1ccc(NC(=O)c2c[nH]c3ccccc3c2=O)cn1 [Compound 162, N-(6-methoxy-3-pyridyl)-4-oxo-1H-quinoline-3-carboxamide]",< 25
6,"COc1cc(NC(=O)c2c[nH]c3ccccc3c2=O)c(C(F)(F)F)cc1C(C)(C)C [Compound 421, N-[5-methoxy-4-tert-butyl-2-(trifluoromethyl)phenyl]-4-oxo-1H-quinoline-3-carboxamide]",25 to 100
7,"CC(C)(C)OC(=O)N1CCc2ccc(NC(=O)c3c[nH]c4ccccc4c3=O)cc2C1 [Compound 107, 7-[(4-oxo-1H-quinolin-3-yl)carbonylamino]-1,2,3,4-tetrahydroisoquinoline-2-carboxylic acid tert-butyl ester]",25 to 100
8,"CCC(=O)Nc1cccc(NC(=O)c2c[nH]c3ccccc3c2=O)c1 [Compound 81, 4-oxo-N-(3-propionylaminophenyl)-1H-quinoline-3-carboxamide]",< 25
9,"O=C(Nc1ccc2c(c1)NCCO2)c1c[nH]c2ccccc2c1=O [Compound 105, 1,4-dihydro-N-(3,4-dihydro-2H-benzo[b][1,4]oxazin-6-yl)-4-oxoquinoline-3-carboxamide]",25 to 100
10,"CC(C)(C)c1cc(Cl)c(O)cc1NC(=O)c1c[nH]c2ccccc2c1=O [Compound 426, N-(4-chloro-5-hydroxy-2-tert-butyl-phenyl)-4-oxo-1H-quinoline-3-carboxamide]",25 to 100
11,"CC(C)(C)c1ccc(NC(=O)c2c[nH]c3ccccc3c2=O)cc1CO [Compound 6, N-[3-(hydroxymethyl)-4-tert-butyl-phenyl]-4-oxo-1H-quinoline-3-carboxamide]",> 100
12,"CC1(c2cc(F)c(NC(=O)c3cnc4ccccc4c3O)cc2O)CCCCCC1 [Compound 483, N-[2-fluoro-5-hydroxy-4-(1-methylcycloheptyl)-phenyl]-4-hydroxy-quinoline-3-carboxamide]",25 to 100
13,"CC(C)(C)c1cc(C(C)(C)C)c(NC(=O)c2c[nH]c3cccc(C(F)(F)F)c3c2=O)cc1O [Compound 520, N-(5-hydroxy-2,4-ditert-butyl-phenyl)-4-oxo-5-(trifluoromethyl)-1H-quinoline-3-carboxamide]",25 to 100
14,"CC(C)(C)c1cc(C(C)(C)C)c(NC(=O)c2c[nH]c3c(C#N)cccc3c2=O)cc1O [Compound 505, 8-cyano-N-(5-hydroxy-2,4-ditert-butyl-phenyl)-4-oxo-1H-quinoline-3-carboxamide]",< 25
15,"CN1CCC(C)(C)c2ccc(NC(=O)c3c[nH]c4ccccc4c3=O)cc21 [Compound 710, 4-oxo-N-(1,4,4-trimethyl-2,3-dihydroquinolin-7-yl)-1H-quinoline-3-carboxamide]",25 to 100
16,"O=C(Nc1cc(O)c(C(F)(F)F)cc1F)c1c[nH]c2ccccc2c1=O [Compound 501, N-[2-fluoro-5-hydroxy-4-(trifluoromethyl)phenyl]-4-oxo-1H-quinoline-3-carboxamide]",25 to 100
17,"CC1(c2cc(F)c(NC(=O)c3c[nH]c4ccccc4c3=O)cc2O)CCCCC1 [Compound 92, N-[2-fluoro-5-hydroxy-4-(1-methylcyclohexyl)-phenyl]-4-oxo-1H-quinoline-3-carboxamide]",25 to 100
18,"CC(C)(C)c1c[nH]c2cc(NC(=O)c3c[nH]c4ccccc4c3=O)c(C(F)(F)F)cc12 [Compound 508, 4-oxo-N-[3-tert-butyl-5-(trifluoromethyl)-1H-indol-6-yl]-1H-quinoline-3-carboxamide]",25 to 100
19,"CCC1(c2ccc(NC(=O)c3c[nH]c4ccccc4c3=O)cc2)CCC(=O)NC1=O (centres unmarked) [Compound 57, N-[4-(3-ethyl-2,6-dioxo-3-piperidyl)phenyl]-4-oxo-1H-quinoline-3-carboxamide]",> 100
20,"O=C(Nc1ccc(C(F)(F)F)c(O)c1)c1c[nH]c2c(Cl)cccc2c1=O [Compound 716, 8-chloro-N-[3-hydroxy-4-(trifluoromethyl)phenyl]-4-oxo-1H-quinoline-3-carboxamide]",25 to 100
21,"CCCCCc1ccc(NC(=O)c2c[nH]c3ccccc3c2=O)cc1 [Compound 99, 4-oxo-N-(4-pentylphenyl)-1H-quinoline-3-carboxamide]",25 to 100
22,"O=C1CSc2ccc(NC(=O)c3c[nH]c4ccccc4c3=O)cc2N1 [Compound 262, 1,4-dihydro-N-(3,4-dihydro-3-oxo-2H-benzo[b][1,4]thiazin-6-yl)-4-oxoquinoline-3-carboxamide]",25 to 100
23,"COC(=O)[C@]1(C)CCCN1c1ccc(NC(=O)c2c[nH]c3ccccc3c2=O)c(C(F)(F)F)c1 [Compound 631, (S)-methyl 2-methyl-1-(4-(4-oxo-1,4-dihydroquinoline-3-carboxamido)-3-(trifluoromethyl)phenyl)pyrrolidine-2-carboxylate]",> 100
24,"CC(C)(C)c1cc(F)c(NC(=O)c2c[nH]c3cccc(F)c3c2=O)cc1O [Compound 610, 5-fluoro-N-(2-fluoro-5-hydroxy-4-tert-butyl-phenyl)-4-oxo-1H-quinoline-3-carboxamide]",25 to 100
25,"CCCCc1ccc(NC(=O)c2c[nH]c3ccccc3c2=O)cc1 [Compound 324, N-(4-butylphenyl)-4-oxo-1H-quinoline-3-carboxamide]",25 to 100
26,"CC(C)c1ccc(NC(=O)c2c[nH]c3ccccc3c2=O)cc1O [Compound 575, N-(3-hydroxy-4-isopropyl-phenyl)-4-oxo-1H-quinoline-3-carboxamide]",25 to 100
27,"CC(C)c1ccc(NC(=O)c2c[nH]c3ccc(F)cc3c2=O)cc1O [Compound 597, 6-fluoro-N-(3-hydroxy-4-isopropyl-phenyl)-4-oxo-1H-quinoline-3-carboxamide]",25 to 100
28,"CC(C)(C)c1cc(C#N)c(NC(=O)c2c[nH]c3ccccc3c2=O)cc1O [Compound 476, N-(4-tert-Butyl-2-cyano-5-hydroxyphenyl)-1,4-dihydro-4-oxoquinoline-3-carboxamide]",25 to 100
